Source: patent US11225481B2 (Centre national de la recherche scientifique, priority 2015, dated 2022)

Each compound was assayed against T1, BRD4(BD1) (Homo sapiens, UniProt O60885) (assay: HTRF assay on robot-synthesised focused library (Example 4 bis)). Conditions: Table 2 bis; focused library without intermediary purification; read-out: HTRF (IC50, μM), effect on BRD4(BD1) activity.
T1 construct: a BRD4(BD1) synthetic gene that includes a TEV cleavage site was purchased from LifeTechnology; made in house
Assay type: binding
Description: (§1) The Accelerator Synthetizer SLT100 allows the efficient synthesis of the focused library in 96 well plates that can be directly transferred to a Labcyte Access/Echo® Laboratory Workstation to assess the compounds for their ability to disrupt bromodmain/histone complexes using the homogeneous time-resolved fluorescence (HTRF®) technology (IC50 μM).
as §1, with “After” for “The Accelerator Synthetizer SLT100 allows”, “with the Accelerator Synthetizer SLT100, the focused library has been” for “that can be”, “μM, table 2bis).” for “μM).”
Work on `CCCCn1c(=O)[nH]c(=O)c2c1nc(CSc1nc3cc(C(=O)OC)ccc3o1)n2CC` [Compound 38] yielded an IC50 of 48.2 µM. `CCCCn1c(=O)[nH]c(=O)c2c1nc(CSc1nc3cc(S(=O)(=O)N4CCOCC4)ccc3[nH]1)n2CC` [Compound 39] gave an IC50 of 38.2 µM. Compound `CCCCn1c(=O)[nH]c(=O)c2c1nc(CSc1nc3ccc([NH2+][O-])cc3[nH]1)n2CC` [Compound 40] has an IC50 of 33 µM. With `CCCCn1c(=O)[nH]c(=O)c2c1nc(CSc1nc3cc(C(=O)OCC)ccc3n1CC)n2CC` [Compound 41] the IC50 was 6.4 µM. In the case of `CCCCn1c(=O)[nH]c(=O)c2c1nc(COc1nc3cc(C(=O)O)ccc3[nH]1)n2CC` [Compound 42], the IC50 was 45.3 µM. `CCCCn1c(=O)[nH]c(=O)c2c1nc(COc1ccc(-n3[nH]c(C(=O)O)cc3=O)nn1)n2CC` [Compound 43] gave an IC50 of 33.4 µM. With `CCCCn1c(=O)[nH]c(=O)c2c1nc(COc1ccc(-n3ncc(C(=O)O)c3CC)nn1)n2CC` [Compound 44] the IC50 was 21.9 µM. `CCCCn1c(=O)[nH]c(=O)c2c1nc(COc1ccc(C3CNCC3C(=O)O)cc1)n2CC` (stereo not shown) [Compound 45] was tested, and the IC50 was 11.6 µM. With `CCCCn1c(=O)[nH]c(=O)c2c1nc(CSc1nnc(-c3ccccc3)c(-c3ccccc3)n1)n2CC` [Compound 46] the IC50 was 20.1 µM. `CCCCn1c(=O)[nH]c(=O)c2c1nc(COc1ccc3c(=O)c(Oc4ccccc4)coc3c1)n2CC` [Compound 47] was tested, and the IC50 was 30.1 µM. Work on `CCCCn1c(=O)[nH]c(=O)c2c1nc(COc1ccc3c(=O)c(-c4ccccc4)coc3c1)n2CC` [Compound 48] yielded an IC50 of 35.2 µM. For `CCCCn1c(=O)[nH]c(=O)c2c1nc(COc1cn3cc(C(=O)O)ccc3n1)n2CC` [Compound 49], the IC50 was 35.1 µM. `CCCCn1c(=O)[nH]c(=O)c2c1nc(COc1cccc(C(=O)NCc3ccccc3)c1)n2CC` [Compound 51] gave an IC50 of 30.2 µM. Work on `CCCCn1c(=O)[nH]c(=O)c2c1nc(COc1ccc(Nc3nc4ccccc4c(=O)[nH]3)cc1)n2CC` [Compound 52] yielded an IC50 of 33 µM. Compound `CCCCn1c(=O)[nH]c(=O)c2c1nc(CSc1nc(O)c3c(C)cc(C)nc3n1)n2CC` [Compound 53] has an IC50 of 4.4 µM. `CCCCn1c(=O)[nH]c(=O)c2c1nc(CSc1nc3nc(C)ccc3o1)n2CC` [Compound 54] showed an IC50 of 7.1 µM. `CCn1c(CSc2nc3nc(C)c(CCC(=O)O)c(C)n3n2)nc2c1c(=O)[nH]c(=O)n2Cc1ccc(Cl)cc1` [Compound 55] gave an IC50 of 14.2 µM. Compound `CCn1c(CSc2nc3ccc(C(=O)O)cc3o2)nc2c1c(=O)[nH]c(=O)n2Cc1ccc(Cl)cc1` [Compound 56] has an IC50 of 13.2 µM. `CCn1c(CSc2nc3cc(C(=O)O)ccc3o2)nc2c1c(=O)[nH]c(=O)n2Cc1ccc(Cl)cc1` [Compound 57] gave an IC50 of 7.5 µM. In the case of `CCn1c(CSc2nc3cc(S(=O)(=O)N4CCCCC4)ccc3o2)nc2c1c(=O)[nH]c(=O)n2Cc1ccc(Cl)cc1` [Compound 58], the IC50 was 2.7 µM. With `CCn1c(CSc2nc3cc(S(=O)(=O)CC)ccc3o2)nc2c1c(=O)[nH]c(=O)n2Cc1ccc(Cl)cc1` [Compound 59] the IC50 was 6.9 µM. `CCn1c(CSc2nc3cc([N+](=O)[O-])ccc3o2)nc2c1c(=O)[nH]c(=O)n2Cc1ccc(Cl)cc1` [Compound 60] showed an IC50 of 8.4 µM. Work on `CCn1c(CSc2nc3cc(S(=O)(=O)N(C)C)ccc3o2)nc2c1c(=O)[nH]c(=O)n2Cc1ccc(Cl)cc1` [Compound 61] yielded an IC50 of 4.7 µM. Compound `CCn1c(CSc2nc3cc(S(=O)(=O)N4CCOCC4)ccc3o2)nc2c1c(=O)[nH]c(=O)n2Cc1ccc(Cl)cc1` [Compound 62] has an IC50 of 8.9 µM. `CCn1c(CSc2nc3cc(C(=O)OC)ccc3o2)nc2c1c(=O)[nH]c(=O)n2Cc1ccc(Cl)cc1` [Compound 63] was tested, and the IC50 was 8.9 µM. `CCn1c(CSc2nc3ccc(C(=O)O)cc3[nH]2)nc2c1c(=O)[nH]c(=O)n2Cc1ccc(Cl)cc1` [Compound 64] was tested, and the IC50 was 5.1 µM. In the case of `CCn1c(CSc2nc3cc(S(=O)(=O)N4CCOCC4)ccc3[nH]2)nc2c1c(=O)[nH]c(=O)n2Cc1ccc(Cl)cc1` [Compound 65], the IC50 was 32.7 µM. With `CCOC(=O)c1ccc2c(c1)nc(SCc1nc3c(c(=O)[nH]c(=O)n3Cc3ccc(Cl)cc3)n1CC)n2CC` [Compound 66] the IC50 was 16.8 µM. For `CCCCNS(=O)(=O)c1ccc2nc(SCc3nc4c(c(=O)[nH]c(=O)n4Cc4ccc(Cl)cc4)n3CC)[nH]c2c1` [Compound 67], the IC50 was 8.9 µM. In the case of `CCn1c(COc2nc3cc(C(=O)O)ccc3[nH]2)nc2c1c(=O)[nH]c(=O)n2Cc1ccc(Cl)cc1` [Compound 68], the IC50 was 35.5 µM. `CCn1c(COc2ccc(-n3[nH]c(C(=O)O)cc3=O)nn2)nc2c1c(=O)[nH]c(=O)n2Cc1ccc(Cl)cc1` [Compound 69] gave an IC50 of 8.4 µM. With `CCc1c(C(=O)O)cnn1-c1ccc(OCc2nc3c(c(=O)[nH]c(=O)n3Cc3ccc(Cl)cc3)n2CC)nn1` [Compound 70] the IC50 was 6.5 µM. For `CCn1c(COc2nnc(-c3ccccc3)c(-c3ccccc3)n2)nc2c1c(=O)[nH]c(=O)n2Cc1ccc(Cl)cc1` [Compound 71], the IC50 was 17.8 µM. Compound `CCn1c(COc2ncc(-c3ccc(C(=O)O)s3)cc2C)nc2c1c(=O)[nH]c(=O)n2Cc1ccc(Cl)cc1` [Compound 72] has an IC50 of 4.4 µM. With `CCn1c(COc2ccc(C3NC(C(=O)O)CS3)cc2)nc2c1c(=O)[nH]c(=O)n2Cc1ccc(Cl)cc1` (stereo not shown) [Compound 73] the IC50 was 7.5 µM. Work on `CCn1c(CSc2nnc(Cc3cc(C)nn3C)n2CC2CCCO2)nc2c1c(=O)[nH]c(=O)n2Cc1ccc(Cl)cc1` (stereo not shown) [Compound 74] yielded an IC50 of 5.5 µM. For `CCn1c(COc2cccc(C(=O)NCc3ccccc3)c2)nc2c1c(=O)[nH]c(=O)n2Cc1ccc(Cl)cc1` [Compound 75], the IC50 was 3.9 µM. `CCn1c(COc2ccc(Nc3nc4ccccc4c(=O)[nH]3)cc2)nc2c1c(=O)[nH]c(=O)n2Cc1ccc(Cl)cc1` [Compound 76] showed an IC50 of 12.7 µM. `CCn1c(CSc2nc3nc(C)c(Br)cc3[nH]2)nc2c1c(=O)[nH]c(=O)n2Cc1ccc(Cl)cc1` [Compound 79] gave an IC50 of 4.2 µM. Compound `CCn1c(CSc2nc3ncccn3n2)nc2c1c(=O)[nH]c(=O)n2Cc1ccc(Cl)cc1` [Compound 80] has an IC50 of 10.6 µM.
